From patent publication US20230399312A1, “SUBSTITUTED PYRIMIDINES AND METHODS OF USE” (THERAVANCE BIOPHARMA R&D IP, LLC, priority 2020, published 2023)

Legend:
[1] = test system: TGF-β-stimulated SMAD3 phosphorylation in BEAS-2B cells; experiment: Cellular ALK5 potency assay, inhibition of TGF-β stimulated pSMAD3 formation in BEAS-2B cells; format: cell-based; details: Homo sapiens, pSMAD3, TGF-β 10 ng/mL, read-out: BEAS2B pIC50 (converted)
Protocol: The potency of compounds of the present disclosure for inhibition of TGF-β-stimulated SMAD3 phosphorylation was measured in BEAS-2B cells, a human lung epithelial cell line. TGF-β signals through activin receptor-like kinase 5 (ALK5) immediately prior to SMAD3 phosphorylation.
BEAS-2B cells were grown using 50% DMEM (Life Technologies) and 50% F-12 (Life Technologies) media, supplemented with 10% Fetal Bovine Serum (ATCC), 25 mM HEPES (Life Technologies), and 1×Pen-Strep (Life Technologies). Cells were cultured in a humidified incubator set at 37° C., 5% CO2, and trypsonized using 0.25% Trypsin with 0.5% polyvinylpyrrolidone (PVP).
For the assay, BEAS-2B cells were seeded at 7,500 cells/well (25 μL/well) in a 384-well plate and cultured overnight. Before dosing, growth media was aspirated and the wells were rinsed with HBSS Buffer (HBSS with Calcium and Magnesium, Life Technologies) supplemented with 25 mM HEPES (Life Technologies) and 1% Bovine Serum Albumin (Roche). Compounds were serially diluted in DMSO, then further diluted with supplemented HBSS Buffer (50 μL/well) to create a compound plate 3× of the final assay concentration, at 0.3% DMSO. The diluted compounds were then added to the cells (8 μL/well) and incubated at 37° C., 5% CO2 for 1 hour. After the compound incubation, TGF-β (R&D Systems) reconstituted in supplemented HBSS Buffer was added to the cells ([…], final concentration 10 ng/mL) and incubated for a further 30 minutes, after which the cells were immediately lysed with AlphaLISA lysis buffer (PerkinElmer). AlphaLISA Acceptor and Detector beads (PerkinElmer) were added 2 hours apart, then incubated overnight to be read the next day. The potency of the compound was determined through analysis of dose-dependent quantified changes in pSMAD3 signal from baseline (non-compound treated TGF-β stimulated cells). Data are expressed as pIC50 (negative decadic logarithm IC50) values.

[2] = target: T1, recombinant human ALK5 (TGF-βR1) protein (Homo sapiens, UniProt P36897); experiment: Biochemical ALK5 (TGF-βR1) assay to measure pKi (LANCE Ultra ULight kinase assay); details: apparent pKi, converted from pIC50 by Cheng-Prusoff
T1 construct: purchased Life Technologies PR9075A
T1 sequence (P36897 34-503): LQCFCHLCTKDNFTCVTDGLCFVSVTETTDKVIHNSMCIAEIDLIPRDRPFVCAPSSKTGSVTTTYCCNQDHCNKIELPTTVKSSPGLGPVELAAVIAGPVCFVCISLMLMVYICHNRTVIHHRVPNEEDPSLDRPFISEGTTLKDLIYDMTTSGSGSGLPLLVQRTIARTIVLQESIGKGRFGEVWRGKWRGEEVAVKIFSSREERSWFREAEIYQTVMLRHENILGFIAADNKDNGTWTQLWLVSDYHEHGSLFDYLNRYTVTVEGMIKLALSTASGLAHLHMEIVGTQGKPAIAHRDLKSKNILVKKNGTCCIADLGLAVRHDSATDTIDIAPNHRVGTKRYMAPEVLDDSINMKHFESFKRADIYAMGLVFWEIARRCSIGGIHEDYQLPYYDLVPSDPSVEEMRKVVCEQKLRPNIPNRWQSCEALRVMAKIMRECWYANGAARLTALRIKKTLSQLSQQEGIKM
Protocol: The assays were performed in a 384-well plate (24 columns×16 wells/rows). An Echo®550 Liquid Handler (Labcyte) was used to prepare various intermediate concentrations of compounds of the present disclosure in 100% DMSO. From the intermediate concentrations, a range of concentrations (from […] to 25 μM corresponding to volumes up to 105 nL) were prepared and ejected into a final assay plate to be used to create individual dose response curves for each of the subject compounds. To a separate column within the assay plate, 105 nL of DMSO in each well was used to establish a maximum assay signal. Additionally, 105 nL of 100 μM SD-208, a selective TGF-βR1 inhibitor (Catalog #S7624, Selleck Chemicals), was used in another column of wells to establish a minimal assay signal.
With a multidrop dispenser, 8 μL of enzyme mixture (1.25× final) was added to each well. […] The plate was then sealed with an adhesive seal and allowed to equilibrate for 60 minutes at room temperature.
Next, 2 μL of 125 μM ATP (5×final, 125 μM ATP prepared in assay buffer with 2 mM DTT) was added to the incubated mixtures, covered with a MicroClime® Environmental Lid (Product No. LLS-0310, Labcyte) and immediately transferred to 37° C. The reactions were allowed to proceed at 37° C. for 60 minutes before terminating with the addition of 10 μL of detection antibody (LANCE® (lanthanide chelate excite) Ultra Europium-anti-phospo-DNA Topoisomerase 2-alpha (Thr1342)) in detection mixture (12 mM EDTA, 4 nM detection antibody prepared in detection buffer (50 mM Tris-HCl, 150 mM NaCl, 0.5% BSA (Fraction V), pH 7.0)) at room temperature. The plate was then read on a Perkin Elmer EnVision Plate Reader using europium specific reader settings with excitation and emission wavelengths set to 320 or 340 nm and 665 nm, respectively.
For dose-response analyses, percent inhibition versus compound concentrations were plotted, and pIC50 values were determined from a 4-parameter robust fit model with GraphPad Prism V5 Software (GraphPad Software, Inc., La Jolla, CA). This model obtains pIC50 values by fitting the sigmoidal dose-response (variable slope) equation to the data. Results were expressed as pIC50 (negative logarithm of IC50) and subsequently converted to pKi (negative logarithm of dissociate constant, Ki) using the Cheng-Prusoff equation. The higher the value of pKi (lower value of Ki), the greater the inhibition of ALK5 activity.

Row | Ki [2] [nM] | SMILES | IC50 [1] [nM]
1 |  | Cc1cccc(-c2nccc(Nc3ccnc(Nc4ccc(N5CCNC(C)C5)cc4)n3)n2)n1 (racemic) [Compound 7, N4-[2-(6-methyl-2-pyridyl)pyrimidin-4-yl]-N2-[4-[rac-(3R)-3-methylpiperazin-1-yl]phenyl]pyrimidine-2,4-diamine] | 25.1 to 158
2 | 0.398 to 3.16 | Cc1cccc(-c2nccc(Nc3ccnc(Nc4ccc(N5CCNCC5CC(=O)O[C@@H]5CCN(C)C5)cc4)n3)n2)n1 (mixture of isomers) [Compound 103, (R)-1-methylpyrrolidin-3-yl 2-(1-(4-((4-((2-(6-methylpyridin-2-yl)pyrimidin-4-yl)amino)pyrimidin-2-yl)amino)phenyl)piperazin-2-yl)acetate] | 200 to 1260
3 | 0.0398 to 0.316 | Cc1cccc(-c2nccc(Nc3ccnc(Nc4ccc(CN5CCCC(C(=O)O[C@@H]6CCNC6)C5)cc4)n3)n2)n1 (mixture of isomers) [Compound 105, [rac-(3R)-pyrrolidin-3-yl] 1-[[4-[[4-[[2-(6-methyl-2-pyridyl)pyrimidin-4-yl]amino]pyrimidin-2-yl]amino]phenyl]methyl] piperidine-3-carboxylate] | 25.1 to 158
4 | 0.0398 to 0.316 | CCC(C)OC(=O)C1CN(c2ccc(Nc3nccc(Nc4ccnc(-c5cccc(C)n5)n4)n3)cc2)CCN1 (racemic) [Compound 192, [rac-(1R)-1-methylpropyl] 4-[4-[[4-[[2-(6-methyl-2-pyridyl)pyrimidin-4-yl]amino]pyrimidin-2-yl]amino]phenyl]piperazine-2-carboxylate] | 25.1 to 158
5 | 0.0398 to 0.316 | Cc1cccc(-c2nccc(Nc3ccnc(Nc4ccc(CN5CCCC(C(=O)O[C@H]6CCNC6)C5)cc4)n3)n2)n1 (mixture of isomers) [Compound 212, [rac-(3S)-pyrrolidin-3-yl] 1-[[4-[[4-[[2-(6-methyl-2-pyridyl)pyrimidin-4-yl]amino]pyrimidin-2-yl]amino]phenyl]methyl] piperidine-3-carboxylate] | 25.1 to 158
6 | 0.0398 to 0.316 | Cc1cccc(-c2nccc(Nc3ccnc(Nc4ccc(N5CCNCC5C)cc4)n3)n2)n1 (racemic) [Compound 216, N4-[2-(6-methyl-2-pyridyl)pyrimidin-4-yl]-N2-[4-[rac-(2S)-2-methylpiperazin-1-yl]phenyl]pyrimidine-2,4-diamine] | 25.1 to 158
7 | 0.398 to 3.16 | CCC(C)OC(=O)C1CNCCN1c1ccc(Nc2nccc(Nc3ccnc(-c4cccc(C)n4)n3)n2)cc1 (racemic) [Compound 230, [rac-(1R)-1-methylpropyl] 1-[4-[[4-[[2-(6-methyl-2-pyridyl)pyrimidin-4-yl]amino]pyrimidin-2-yl]amino]phenyl]piperazine-2-carboxylate] | 25.1 to 158
8 | 0.0398 to 0.316 | Cc1cccc(-c2nccc(Nc3ccnc(Nc4ccc(N(C)C5CCNC5)cc4)n3)n2)n1 (racemic) [Compound 274, N4-[2-(6-methyl-2-pyridyl)pyrimidin-4-yl]-N2-[4-[methyl-[rac-(3R)-pyrrolidin-3-yl]amino]phenyl]pyrimidine-2,4-diamine] | 25.1 to 158
9 | 0.0398 to 0.316 | Cc1cccc(-c2nccc(Nc3ccnc(Nc4ccc(N5CCNC(C)C5)cc4)n3)n2)n1 (racemic) [Compound 528, N4-[2-(6-methyl-2-pyridyl)pyrimidin-4-yl]-N2-[4-[rac-(3S)-3-methylpiperazin-1-yl]phenyl]pyrimidine-2,4-diamine] | 
10 |  | Cc1cccc(-c2ncc(C(=O)O)c(Nc3ccnc(Nc4ccc(N)cc4)n3)n2)n1 [Compound 26, 4-[[2-(4-aminoanilino)pyrimidin-4-yl]amino]-2-(6-methyl-2-pyridyl)pyrimidine-5-carboxylic acid] | 1580 to 10000
11 | 0.0398 to 0.316 | Cc1cccc(-c2nccc(Nc3ccnc(Nc4ccc(CN5CC(CO)C5)cc4)n3)n2)n1 [Compound 266, [1-[[4-[[4-[[2-(6-methyl-2-pyridyl)pyrimidin-4-yl]amino]pyrimidin-2-yl]amino]phenyl]methyl]azetidin-3-yl]methanol] | 
12 |  | CNC(=O)Cc1cc(Nc2ccnc(Nc3ccc(N4CCNCC4)cc3)n2)nc(-c2cccc(C)n2)n1 [Compound 309, N-methyl-2-[2-(6-methyl-2-pyridyl)-6-[[2-(4-piperazin-1-ylanilino)pyrimidin-4-yl]amino]pyrimidin-4-yl]acetamide] | 200 to 1260
13 | ≤ 0.0316 | Cc1cccc(-c2nccc(Nc3ccnc(Nc4ccc(CN5CC[C@@H](O)C5)cc4)n3)n2)n1 [Compound 319, (3R)-1-[[4-[[4-[[2-(6-methyl-2-pyridyl)pyrimidin-4-yl]amino]pyrimidin-2-yl]amino]phenyl]methyl] pyrrolidin-3-ol] | 
14 |  | COC(=O)c1ccc(Nc2nccc(Nc3nc(-c4cccc(C)n4)ncc3C(=O)OC)n2)cc1 [Compound 468, methyl 4-[[2-(4-methoxycarbonylanilino)pyrimidin-4-yl]amino]-2-(6-methyl-2-pyridyl) pyrimidine-5-carboxylate] | 200 to 1260
15 | 3.98 to 31.6 | Cc1cccc(-c2nccc(Nc3ccnc(Nc4ncc(N5CCNCC5)s4)n3)n2)n1 [Compound 640, N4-[2-(6-methyl-2-pyridyl)pyrimidin-4-yl]-N2-(5-piperazin-1-ylthiazol-2-yl)pyrimidine-2,4-diamine] | 
16 | 3.98 to 31.6 | CNC(=O)Cc1cc(Nc2ccnc(Nc3ccc(N4CCNCC4)cc3)n2)nc(-c2cccc(C)n2)n1 [Compound 1008, N-methyl-2-[2-(6-methyl-2-pyridyl)-6-[[2-(4-piperazin-1-ylanilino)pyrimidin-4-yl]amino]pyrimidin-4-yl] acetamide] | 
17 | 3.98 to 31.6 | COC(=O)c1ccc(Nc2nccc(Nc3nc(-c4cccc(C)n4)ncc3C(=O)OC)n2)cc1 [Compound 1043, methyl 4-[[2-(4-methoxycarbonylanilino)pyrimidin-4-yl]amino]-2-(6-methyl-2-pyridyl)pyrimidine-5-carboxylate] | 
18 | 0.398 to 3.16 | Cc1cccc(-c2ncc(C(=O)O)c(Nc3ccnc(Nc4ccc(N)cc4)n3)n2)n1 [Compound 1044, 4-[[2-(4-aminoanilino)pyrimidin-4-yl]amino]-2-(6-methyl-2-pyridyl)pyrimidine-5-carboxylic acid] | 

Row | SMILES | Ki [2] [nM] | IC50 [1] [nM]
19 | Cc1cccc(-c2nccc(Nc3ccnc(Nc4ccc(CN5[C@H]6CCNC[C@@H]5CC6)cc4)n3)n2)n1 (racemic) [Compound 360, N4-[2-(6-methyl-2-pyridyl)pyrimidin-4-yl]-N2-[4-[[rac-(1S,6R)-3,9-diazabicyclo[4.2.1]nonan-9-yl]methyl]phenyl]pyrimidine-2,4-diamine] | 0.0398 to 0.316 | 25.1 to 158
